Entries after “also recorded” stand apart in the source; their conditions may differ.
What was measured:
[1] = test system: MC3T3 E1 osteoblast-like cells; test: Western blot of eIF2α-p, ATF4, CHOP and caspase 3 proteins in response to thapsigargin; assay type: cell-based, mouse
Procedure: At higher doses of 10 and 100 nM, the levels of eIF2α-p and ATF4 proteins were elevated (FIG. 3A). Thapsigarin is known to induce apoptosis when administered above a threshold concentration.

MC3T3 cells [2] = test: Cell proliferation and death; assay type: cell-based; conditions: 1 h incubation with 10 nM (mild ER stress)
MC3T3 cells [3] = test: mRNA expression levels by real-time PCR; assay type: cell-based, mouse
Procedure: Responses to Administration of Thapsigargin—Upregulation of transcription factors linked to bone formation as well as PERK: The effects of 10 nM thapsigargin on mRNA expression levels of ISR-linked genes (ATF4, ATF3, and CHOP) as well as genes involved in bone remodeling (Runx2, Osterix, and Rank1), were examined (FIG. 5). […] Out of 4 transcription factors (ATF4, ATF3, Runx2, and Osterix), the level of ATF4 mRNA was elevated 2-4 fold throughout the treatments. […] The mRNA level of type 1 collagen was elevated 5 h and 10 h for T1h (1 h exposure at 10 nM).
Responses to Administration of Salubrinal—In vitro responses to salubrinal: In order to evaluate the effects of salubrinal, MC3T3 E1 osteoblast-like cells and MLO-A5 osteocyte cells (Barragan-Adjemian, C., et al., “Mechanism by which MLO-A5 late osteoblasts/early osteocytes mineralize in culture: similarities with mineralization of lamellar bone,” Calcif. Tissue Int. 79:340-353 (2006)) were incubated with salubrinal at 100 nM-50 μM for 1-24 h. The mRNA levels of the selected genes, TF4, ATF3, Osteocalcin (OCN), and CHOP, were determined by real-time PCR. […] In MC3T3 cells, for instance, the Osteocalcin mRNA level, which is regulated by ATF4 and Runx2 (Xiao et al. 2005), was elevated 11.8±0.2 fold at 10 μM salubrinal in 24 h.

MC3T3 cells [4] = test: Phosphorylation of eIF2α kinases (PERK, PKR) and MAP kinases (p-38 MAPK, ERK1/2); assay type: cell-based, mouse; conditions: 10 nM, 1 h exposure
Procedure: In response to T1h (1 h exposure at 10 nM), the level of phosphorylation of two eIF2α kinases (PERK and PKR), and two MAP kinases (p-38 MAPK and ERK1/2) was examined (FIG. 6).

MC3T3 cells [5] = test: mRNA expression levels by real-time PCR; assay type: cell-based, mouse; conditions: 1-100 nM for 1-24 h

C/C=C(/C)C(=O)O[C@H]1C(C)=C2[C@H]([C@@H]1OC(=O)CCCCCCC)[C@@](C)(OC(C)=O)C[C@H](OC(=O)CCC)[C@@]1(O)[C@H]2OC(=O)[C@@]1(C)O [thapsigargin]
CHOP protein level ([1]; 10 nM): started to increase after 3 h
Pro-caspase 3 level ([1]; 10 nM): not significantly altered
cleaved caspase 3 (active form) level ([1]; 10 nM): increased after 24 h
ATF4 protein level ([1]; 10 and 100 nM): elevated
eIF2α-p protein level ([1]; 10 and 100 nM): elevated
ATF4 protein level ([1]; lower dosages below 0.1 nM): no detectable upregulation
eIF2α-p protein level ([1]; lower dosages below 0.1 nM): no detectable upregulation
numbers of live and dead cells (cell number or mortality) (MC3T3 cells [2]): does not alter; also recorded: no significant difference
ATF3 mRNA level (MC3T3 cells [3]; 10 nM): 100-1000 times
CHOP mRNA level (MC3T3 cells [3]; 10 nM): 10-35 fold
Osterix mRNA (MC3T3 cells [3]; 10 nM): enhanced at 1 h
Runx2 mRNA increase (MC3T3 cells [3]; 10 nM): started at 3 h and peaked at 5 h
ATF4 mRNA level (MC3T3 cells [3]; 10 nM, 1, 2 and 3 h exposures): 2-4 fold
Rank1 mRNA (MC3T3 cells [3]; 3 h for T2h and 10 h for T3h, 10 nM): significantly up
type 1 collagen mRNA level (MC3T3 cells [3]; 5 h and 10 h for T1h (1 h exposure at 10 nM)): elevated
p-ERK1/2 level (MC3T3 cells [4]): not altered; also recorded: unchanged
p-PERK level (MC3T3 cells [4]): elevated; also recorded: Activation
p-PKR level (MC3T3 cells [4]): not altered; also recorded: unchanged
p-p38 MAPK level (MC3T3 cells [4]): elevated; also recorded: Activation
Osteocalcin mRNA level (MC3T3 cells [5]): did not increase

From patent US20120295935A1, “MIXED AMINAL PHARMACEUTICAL COMPOSITIONS AND USES THEREOF” (priority 2010, published 2012)
